Laboratory results: PubChem BioAssay AID248 (DTP/NCI, 2004)
Values joined by “and” are separate entries in the source; they are usually repeats but may differ in a detail not shown here. Equal entries are not always repeated. Inconclusive results and toxic doses are left out. Rule as the data show it: active = T/C of 150% or more; inactive = T/C below 125%.

System: L1210 leukemia ip in BDF1 mice, survival T/C
Assay: NCI In Vivo Anticancer Drug Screen. Data for tumor model L1210 Leukemia (intraperitoneal) in B6D2F1 (BDF1) mice
Conditions: endpoint: mean survival time, higher = longer survival
Summary of the method: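 Survival endpoint. Drug-treated group vs vehicle group, expressed as T divided by C. Tumor passaged by transplantation.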

[1] = dose: 100.0 mg/kg/injection, schedule: Q01DX009 (ip), vehicle: saline with Tween-80
[2] = dose: 100.0 mg/kg/injection, schedule: Q04DX003 (ip), vehicle: saline with Tween-80
[3] = dose: 200.0 mg/kg/injection, schedule: Q01DX009 (ip), vehicle: saline with Tween-80
[4] = dose: 200.0 mg/kg/injection, schedule: Q04DX003 (ip), vehicle: saline with Tween-80
[5] = dose: 400.0 mg/kg/injection, schedule: Q01DX009 (ip), vehicle: saline with Tween-80
[6] = dose: 400.0 mg/kg/injection, schedule: Q04DX003 (ip), vehicle: saline with Tween-80
[7] = dose: 100.0 mg/kg/injection, schedule: Q01DX009 (ip), vehicle: Klucel (hydroxypropylcellulose) (HPC)
[8] = dose: 200.0 mg/kg/injection, schedule: Q01DX009 (ip), vehicle: Klucel (hydroxypropylcellulose) (HPC)
[9] = dose: 400.0 mg/kg/injection, schedule: Q01DX009 (ip), vehicle: Klucel (hydroxypropylcellulose) (HPC)
[10] = dose: 100.0 mg/kg/injection, schedule: Q04DX002 (ip), vehicle: Klucel (hydroxypropylcellulose) (HPC)
[11] = dose: 200.0 mg/kg/injection, schedule: Q04DX002 (ip), vehicle: Klucel (hydroxypropylcellulose) (HPC)
[12] = dose: 100.0 mg/kg/injection, schedule: Q01DX001 (ip), vehicle: other
[13] = dose: 200.0 mg/kg/injection, schedule: Q01DX001 (ip), vehicle: other
[14] = dose: 400.0 mg/kg/injection, schedule: Q01DX001 (ip), vehicle: other
[15] = dose: 50.0 mg/kg/injection, schedule: Q01DX009 (ip), vehicle: saline with Tween-80
[16] = dose: 400.0 mg/kg/injection, schedule: Q04DX002 (ip), vehicle: Klucel (hydroxypropylcellulose) (HPC)

Measured: T/C

BrC1(Br)C2CC3C(CC21)C1CC2C(CC31)C2(Br)Br (configuration not stated)
inactive: [1] 97 % of control | [2] 94 % of control | [3] 96 % of control | [4] 95 % of control | [5] 105 % of control | [6] 92 % of control

CC(C)CC(B1OCCO1)(C1CCCCC1)C1CCCCC1
inactive: [1] 107 % of control | dose: 100.0 mg/kg/injection, schedule: Q04DX003 (ip), vehicle: other 105 % of control | [3] 93 % of control | dose: 200.0 mg/kg/injection, schedule: Q04DX003 (ip), vehicle: other 104 % of control | dose: 400.0 mg/kg/injection, schedule: Q04DX003 (ip), vehicle: other 110 % of control

CC1=CCCCC1Oc1ccccc1 (configuration not stated)
inactive: [2] 104 % of control | [4] 96 % of control | [6] 109 % of control

c1ccc(-c2cc(-c3ccccc3)n(-c3ccccc3)c2)cc1
inactive: dose: 100.0 mg/kg/injection, schedule: Q01DX001 (ip), vehicle: saline with Tween-80 87 % of control | dose: 200.0 mg/kg/injection, schedule: Q01DX001 (ip), vehicle: saline with Tween-80 89 % of control

Nc1nc(NCCO)c(NC=O)c(=O)[nH]1
inactive: dose: 100.0 mg/kg/injection, schedule: Q01DX Z (ip), vehicle: methylcellulose (MC) 103 % of control | dose: 128.0 mg/kg/injection, schedule: Q01DX Z (ip), vehicle: methylcellulose (MC) 95 % of control | dose: 222.0 mg/kg/injection, schedule: Q01DX Z (ip), vehicle: methylcellulose (MC) 94 % of control | dose: 333.0 mg/kg/injection, schedule: Q01DX Z (ip), vehicle: methylcellulose (MC) 97 % of control

COc1ccc(N=CC(=O)c2ccc(C)cc2)c([N+](=O)[O-])c1
inactive: dose: 100.0 mg/kg/injection, schedule: Q01DX001 (ip), vehicle: Klucel (hydroxypropylcellulose) (HPC) 107 % of control | dose: 200.0 mg/kg/injection, schedule: Q01DX001 (ip), vehicle: Klucel (hydroxypropylcellulose) (HPC) 104 % of control | dose: 400.0 mg/kg/injection, schedule: Q01DX001 (ip), vehicle: Klucel (hydroxypropylcellulose) (HPC) 95 % of control

CC1(C)CN=C(SC(=O)c2ccc([N+](=O)[O-])cc2)S1
inactive: dose: 100.0 mg/kg/injection, schedule: Q04DX002 (ip), vehicle: gum acacia 100 % of control | dose: 200.0 mg/kg/injection, schedule: Q04DX002 (ip), vehicle: gum acacia 93 % of control | dose: 400.0 mg/kg/injection, schedule: Q04DX002 (ip), vehicle: gum acacia 93 % of control

O=S=Nc1c(Cl)cc(Cl)cc1Cl
inactive: [7] 101 % of control | [8] 104 % of control | [9] 108 % of control

CCCCCCCCCCCC(=O)c1ccccc1
inactive: [7] 86 % of control | [8] 91 % of control | [9] 94 % of control

COC(=O)C1C2OC(C3OC32)C1C(=O)OC (configuration not stated)
inactive: dose: 100.0 mg/kg/injection, schedule: Q01DX009 (ip), vehicle: saline 103 % of control | dose: 200.0 mg/kg/injection, schedule: Q01DX009 (ip), vehicle: saline 104 % of control | dose: 400.0 mg/kg/injection, schedule: Q01DX009 (ip), vehicle: saline 95 % of control

Nc1ccc(Nc2ccccc2)cc1
inactive: [10] 100 % of control | [11] 104 % of control

CCOC1CC2CN(C)C1c1ccccc12 (configuration not stated)
inactive: dose: 100.0 mg/kg/injection, schedule: Q04DX003 (ip), vehicle: saline 97 % of control | dose: 200.0 mg/kg/injection, schedule: Q04DX003 (ip), vehicle: saline 97 % of control | dose: 400.0 mg/kg/injection, schedule: Q04DX003 (ip), vehicle: saline 101 % of control

O=[N+]([O-])c1ccc(OCCC[P+](c2ccccc2)(c2ccccc2)c2ccccc2)c(Cl)c1
inactive: dose: 3.12 mg/kg/injection, schedule: Q01DX009 (ip), vehicle: saline 98 % of control | dose: 6.25 mg/kg/injection, schedule: Q01DX009 (ip), vehicle: saline 95 % of control | dose: 6.25 mg/kg/injection, schedule: Q04DX003 (ip), vehicle: saline 94 % of control | dose: 12.5 mg/kg/injection, schedule: Q01DX009 (ip), vehicle: saline 86 % of control and 87 % of control | dose: 12.5 mg/kg/injection, schedule: Q04DX003 (ip), vehicle: saline 92 % of control | dose: 25.0 mg/kg/injection, schedule: Q04DX003 (ip), vehicle: saline 90 % of control

NC(=O)CSc1cc(Cl)ccc1Cl
inactive: [12] 96 % of control | [13] 107 % of control | [14] 113 % of control

O=C(NC(=S)NNC(=S)NNc1ccccc1)c1ccccc1
inactive: dose: 12.5 mg/kg/injection, schedule: Q04DX002 (ip), vehicle: saline with Tween-80 101 % of control | dose: 25.0 mg/kg/injection, schedule: Q01DX009 (ip), vehicle: saline with Tween-80 102 % of control | dose: 25.0 mg/kg/injection, schedule: Q04DX002 (ip), vehicle: saline with Tween-80 107 % of control and 90 % of control | [15] 115 % of control | dose: 50.0 mg/kg/injection, schedule: Q04DX002 (ip), vehicle: saline with Tween-80 108 % of control | dose: 100.0 mg/kg/injection, schedule: Q04DX002 (ip), vehicle: saline with Tween-80 96 % of control and 101 % of control and 110 % of control | dose: 200.0 mg/kg/injection, schedule: Q04DX002 (ip), vehicle: saline with Tween-80 108 % of control

C#CC[N+]1=CN(c2ccc(C)cc2)Cc2cc(C)ccc21
inactive: [15] 89 % of control | [1] 93 % of control | [2] 110 % of control | [4] 98 % of control

Cc1ccccc1NC(=O)Oc1ccc2c(C)cc(=O)oc2c1
inactive: [7] 103 % of control | [8] 100 % of control

COc1cc(N=Nc2ccc3c(c2)Cc2ccccc2-3)c(OC)cc1N
inactive: [12] 111 % of control | [13] 88 % of control | [14] 105 % of control

Cc1cc(Cc2cccc[n+]2[O-])c2ccccc2n1
inactive: dose: 100.0 mg/kg/injection, schedule: Q04DX003 (ip), vehicle: Klucel (hydroxypropylcellulose) (HPC) 102 % of control | dose: 200.0 mg/kg/injection, schedule: Q04DX003 (ip), vehicle: Klucel (hydroxypropylcellulose) (HPC) 96 % of control

Cc1ccc(Cl)cc1NC(=O)COc1ccc(Cl)cc1Cl
inactive: [1] 96 % of control | [2] 107 % of control | [3] 93 % of control | [4] 93 % of control | [5] 93 % of control | [6] 98 % of control

CC(C)c1ccc(NCN2C(=O)c3ccccc3C2=O)cc1
inactive: [7] 100 % of control | [8] 103 % of control | [9] 101 % of control

CCCCOP(=O)(/C=C/c1ccc([N+](=O)[O-])cc1)OCCCC
inactive: [10] 97 % of control | [11] 93 % of control | [16] 108 % of control

O=C(CC(C[N+](=O)[O-])c1ccccc1)c1ccccc1 (configuration not stated)
inactive: [10] 96 % of control | [11] 100 % of control | [16] 96 % of control

C1=C(COC(c2ccccc2)(c2ccccc2)c2ccccc2)CCCC1
inactive: dose: 100.0 mg/kg/injection, schedule: Q01DX001 (ip), vehicle: carboxymethylcellulose (CMC) 87 % of control | dose: 400.0 mg/kg/injection, schedule: Q01DX001 (ip), vehicle: carboxymethylcellulose (CMC) 87 % of control

CCOc1ccc(/C=C/c2ccc(OCC)cc2)cc1
inactive: [7] 90 % of control | [8] 90 % of control | [9] 93 % of control
